pEC50: −log10 of the molar value. Entries after “also recorded” stand apart in the source; their conditions may differ. Where two headings read alike, the source gives them in different places.
Assays:
HEK293T = experiment: Mammalian cytotoxicity counter screen, luminescent ATP viability assay; format: cell-based, human; conditions: toxicity in mammalian cell cultures versus G. lamblia GS-clone 7 trophozoites
Description: Mammalian cytotoxicity assays. Mammalian cell lines were used for counter screening for general cytotoxicity of hit compounds from the primary screen: human embryonic kidney cells (HEK293T; ATCC CRL-3216) was used in a luminescent ATP assay for detection of cell viability.
Data analysis. Relative luminescence units (RLU) values were analyzed in Genedata Screener (v13.0-Standard). RLU was normalized to neutral controls minus inhibitors (DMSO-treated wells minus metronidazole-treated wells). For single-point primary assay plates, an additional run-wise median correction was applied to reduce screen artifacts, whereas no corrections were applied to triplicate dose response plates. For the mammalian cytotoxicity assays, RLU was uploaded into Genedata Screener, and the data was normalized to DMSO-treated wells minus puromycin-treated wells.

G. lamblia CBG99 = experiment: Luciferase reporter acute murine Giardia infection model, whole animal IVIS imaging; format: in vivo, Giardia lamblia
Source text: The method relies on a stable constitutive luciferase reporter, CBG99 (Click beetle green), that correlates with parasite load in vitro and in vivo. […] Only mice with confirmed infections are used in experiments.
All animal experiments were approved by the Institutional Animal Care and Use Committees at the University of Washington.
The method relies on a stable constitutive reporter, CBG99, that correlates with total parasite load.

[1] = Mouse pharmacokinetics, plasma concentration by LC-MS/MS; format: in vivo; conditions: infected mice, all treatment groups, days 6 and 7 post-infection (24 and 48 hours after first dose)
[2] = system: G. lamblia WB6 (Assemblage A); experiment: Cell growth inhibition against G. lamblia WB6; format: cell-based, Giardia lamblia
Description: (§1) Giardia lamblia culture. G. lamblia WB6 strain, G. lamblia CBG99 strain, metronidazole-resistant strain 713-M3 and G. lamblia (Lambl) Alexeieff trophozoites (GS-clone H7; ATCC 50581) used for the primary screening were maintained in modified TYI-S-33 medium (ATCC 2695) and assayed as earlier described (Keister, 1983, Trans R Soc Trop Med Hyg 77: 487-488). Subsequent assays, including the mouse model of infection, used the G. lamblia click beetle green (CBG99) strain which was grown and assayed as previously described (Michaels et al., 2020, J Antimicrob Chemother 75:1218-1227; and Keister, 1983, Trans R Soc Trop Med Hyg 77:487-488).

[3] = system: metronidazole resistant 713-M3 strain; experiment: Cell growth inhibition against metronidazole resistant 713-M3 strain; format: cell-based, Giardia lamblia
Description: as §1

[4] = Clinical evaluation of overall health of mice in PK and efficacy studies; format: in vivo
[5] = Resazurin-based viability assay, HepG2; format: cell-based; conditions: human, HepG2 hepatocellular carcinoma cells
Description: (§2) Experimental details for the assays were earlier described (Love et al., 2017, PLoS Negl Trop Dis 11:e0005373). Compounds in the follow-up assays were also tested for the inhibition of CRL-8155 (human lymphocytic cells and human hepatocellular carcinoma cells (HepG2; ATCC HB-8065) in a resazurin-based viability assay as indicators of potential host cell toxicity. Assays were performed as previously reported (Vidadala et al., 2014, Eur J Med Chem 74:562-57).

[6] = Resazurin-based viability assay, CRL-8155; format: cell-based; conditions: human, CRL-8155 lymphocytic cells; CRL-8155 cells
Description: as §2

[7] = Mouse pharmacokinetics, plasma concentration by LC-MS/MS; format: in vivo; conditions: for half-life: read-out: average half-life (t1/2); for Cmax: mouse plasma
Description: Methods for pharmacokinetic studies and analysis of mouse plasma compound concentrations by liquid chromatography with tandem mass spectrometry (LC-MS/MS) have previously been described (Hulverson et al., 2017, J Infect Dis 215:1275-1284; Ojo et al., 2012, J Clin Invest 122:2301-2305; and Schaefer et al., 2016, J Infect Dis 214:1856-1864). The pK studies was performed in groups of 3 mice per compound. […] Blood samples collected at intervals between 0.5 and 24 hours were separated and extracted with acetonitrile for measurement of compound concentrations by combined liquid chromatography-electrospray mass spectrometry (LC/ES-MS).

[8] = adult humans, daily oral doses over 7 days; cited from earlier work
[9] = system: G. lamblia GS-clone H7 trophozoites; experiment: G. lamblia GS-clone H7 trophozoite growth, ATP-based bioluminescence (BacTiter-Glo) primary screen and dose response; format: cell-based; conditions: read-out: Anti-Giardia EC50
[10] = G. lamblia GS-clone H7 (Assemblage B) trophozoites, 48 hours, dose response

## CS(=O)(=O)Nc1ccc(C(=O)O[C@@H](Cc2c(Cl)c[n+]([O-])cc2Cl)c2ccc(OC(F)F)c(OCC3CC3)c2)cc1OCC1CC1 [CHF-6001]
HEK293T
  Selectivity index (SI), CC50/EC50: > 12

## C=CC(=O)N[C@H]1CN(c2nc(Nc3cn(C)nc3OC)c3ncn(C)c3n2)C[C@@H]1F [Mavelertinib]
G. lamblia CBG99; IFN-γ-knockout mice, 1 mg/kg QD×4 days (days 6-9 p.i.), 1 mg/kg
  clearance of infection: None of the 1 mg/kg QD×4 days mice were relieved of their infection; also recorded: did not clear the infection after 4 doses
G. lamblia CBG99; dosed as low as 5 mg/kg or as high as 50 mg/kg
  efficacy in the acute murine Giardia infection model: efficacious; also recorded: effectively clears Giardia infection
G. lamblia CBG99; mice, 2.5 mg/kg QD×2 days
  clearance of infection: one of four mice remained infected
G. lamblia CBG99; mice, 5 mg/kg QD×2 days, 5 mg/kg
  clearance of infection (luminescence signal): cleared the infection below the background signal; also recorded: absence of luminescence signal
G. lamblia CBG99; mice, 20 mg/kg QD×2 days, 20 mg/kg
  clearance of infection (luminescence signal): cleared the infection below the background signal; also recorded: absence of luminescence signal
G. lamblia CBG99; mice, 50 mg/kg QD for 3 days, oral
  clearance of infection: appeared to clear the infection
G. lamblia CBG99; mice, 50 mg/kg QD×1 day, 50 mg/kg
  clearance of infection (luminescence signal): cleared the infection below the background signal; also recorded: absence of luminescence signal
G. lamblia CBG99; mice, one week after the last therapeutic dose
  parasite rebound after treatment: parasites did not rebound
G. lamblia CBG99; mice, one- and two-day dosing of 50 mg/kg QD
  clearance of infection: all treated mice were cleared of infection and remained clear a week after dosing
[1]
  plasma trough levels: below the limit of quantitation
[2]; Giardia duodenalis
  pEC50: 6.57
[3]; Giardia duodenalis
  pEC50: 7.15
[4]
  signs of toxicity in mice: no sign of toxicity; also recorded: no observable mavelertinib induced toxicology potentials
[5]
  CC50: > 80 µM
[6]
  CC50: > 80 µM
[7]; in vivo, mouse, single oral 5 mg/kg
  half-life: 3.99 h
[7]; single oral 5 mg/kg
  Cmax: 0.63 µM
[7]; single oral 20 mg/kg
  Cmax: 3.5 µM
[7]; single oral 50 mg/kg
  Cmax: 9.3 µM
[7]; mouse, 1 mg/kg QD, 1 mg/kg
  plasma level: barely detectable in the plasma of one mouse at 0.5 hours post dose and below the limit of detection at all subsequent time points
[7]; mouse, all dosage groups, single dose
  plasma concentration at 24 h post dose: cleared from plasma by 24 hours; also recorded: below the detection limit
[7]; mouse, single oral 5 mg/kg
  AUC: 89 µmol·min/L
  Clearance: 0.015 L/min
[7]; mouse, single oral 20 mg/kg
  AUC: 300 µmol·min/L
  Clearance: 0.004 L/min
[7]; mouse, single oral 50 mg/kg
  AUC: 812 µmol·min/L
  Clearance: 0.0016 L/min
[7]; plasma, oral, mouse, all doses
  Tmax: 0.5 h
[7]; plasma, mouse, single oral 20 mg/kg
  half-life: 2.91 h
[7]; plasma, mouse, single oral 50 mg/kg
  half-life: 2.09 h
[8]
  daily oral dose causing diarrhea and skin toxicities as most common adverse events: > 150 mg
[9]; Giardia duodenalis, 48 h
  pEC50: 5.63

## CS(=O)(=O)OCCN(CCBr)c1c(C(=O)NCCOP(=O)(O)O)cc([N+](=O)[O-])cc1[N+](=O)[O-] [PR-104]
[9]; [10]
  pEC50: 5.70

## CCN(CC)CCn1c(=O)c(Cc2ccc(OC)cc2)nc2ccccc21 [caroverine]
HEK293T
  Selectivity index (SI), CC50/EC50: > 2
[9]; Giardia duodenalis, G. lamblia GS-clone H7 (Assemblage B) trophozoites, 48 hours, dose response
  pEC50: 4.86

## Cc1ncc([N+](=O)[O-])n1CCO [metronidazole]
G. lamblia CBG99; mice, 20 mg/kg QD×3 days
  clearance of infection: remained infected after treatment

## CC(=O)C[C@H]1CCCCN1 [pelletierine]
[2]
  pEC50: < 4.60
[3]; metronidazole resistant 713-M3, read-out: EC50
  pEC50: < 4.60
[9]; [10]
  pEC50: 4.69

## CCCN(CCC)c1ccc(N=Nc2ccccc2C(=O)O)cc1 [propyl red]
[9]; [10]
  pEC50: 5.24

Source: US20250360138A1 (priority 2022, published 2025)
